Measured values reported in patent US10266497B2 (ABIDE THERAPEUTICS, INC., priority 2017, dated 2019).

Legend:
[1] = molecular target: T1, MAGL (Homo sapiens, UniProt Q99685); assay: In vitro competitive activity-based protein profiling, MAGL, human; details: for inhibition at 1 µM: read-out: MAGL % inh. 1 μM (human)
T1 sequence (Q99685 1-303): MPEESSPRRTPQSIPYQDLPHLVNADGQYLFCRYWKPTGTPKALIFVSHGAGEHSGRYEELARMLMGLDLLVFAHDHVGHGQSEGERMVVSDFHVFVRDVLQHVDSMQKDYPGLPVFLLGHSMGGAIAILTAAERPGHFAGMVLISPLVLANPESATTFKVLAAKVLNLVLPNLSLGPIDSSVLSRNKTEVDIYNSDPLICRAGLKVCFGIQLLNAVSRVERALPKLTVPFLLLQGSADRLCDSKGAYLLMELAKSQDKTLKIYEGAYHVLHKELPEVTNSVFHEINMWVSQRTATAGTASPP

[2] = molecular target: T2, MAGL (Mus musculus, UniProt O35678); assay: In vitro competitive activity-based protein profiling, MAGL, mouse; details: read-out: MAGL % inh. 1 μM (mouse)
T2 sequence (O35678 1-303): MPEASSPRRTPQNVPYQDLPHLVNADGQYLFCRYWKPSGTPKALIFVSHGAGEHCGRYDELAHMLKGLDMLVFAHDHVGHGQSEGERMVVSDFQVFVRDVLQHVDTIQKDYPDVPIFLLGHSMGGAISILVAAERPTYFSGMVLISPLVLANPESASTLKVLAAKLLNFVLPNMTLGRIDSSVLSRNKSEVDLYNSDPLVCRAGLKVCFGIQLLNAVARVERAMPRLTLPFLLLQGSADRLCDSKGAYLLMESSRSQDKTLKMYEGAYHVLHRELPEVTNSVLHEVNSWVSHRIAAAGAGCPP

[3] = molecular target: T3, FAAH (Homo sapiens, UniProt O00519); assay: In vitro competitive activity-based protein profiling, FAAH, human; details: for inhibition at 1 µM: read-out: FAAH % inh. 1 μM (human)
T3 sequence (O00519 1-579): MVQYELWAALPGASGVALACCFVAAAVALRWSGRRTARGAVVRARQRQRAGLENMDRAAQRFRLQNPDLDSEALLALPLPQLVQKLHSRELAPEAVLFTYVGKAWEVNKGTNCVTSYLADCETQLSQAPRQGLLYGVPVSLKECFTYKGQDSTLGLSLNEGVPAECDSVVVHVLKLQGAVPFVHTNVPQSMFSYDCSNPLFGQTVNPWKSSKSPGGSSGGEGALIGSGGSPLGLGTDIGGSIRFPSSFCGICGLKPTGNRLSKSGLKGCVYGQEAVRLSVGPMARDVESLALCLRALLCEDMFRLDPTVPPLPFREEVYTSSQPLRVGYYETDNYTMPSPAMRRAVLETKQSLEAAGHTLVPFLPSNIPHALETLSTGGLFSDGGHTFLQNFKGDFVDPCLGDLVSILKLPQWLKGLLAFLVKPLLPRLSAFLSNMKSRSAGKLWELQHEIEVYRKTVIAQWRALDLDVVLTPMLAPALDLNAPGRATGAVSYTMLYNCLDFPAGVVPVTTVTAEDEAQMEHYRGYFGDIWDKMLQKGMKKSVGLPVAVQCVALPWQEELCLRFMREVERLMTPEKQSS

[4] = molecular target: T4, FAAH (Mus musculus, UniProt O08914); assay: In vitro competitive activity-based protein profiling, FAAH, mouse; details: read-out: FAAH % inh. 1 μM (mouse)
T4 sequence (O08914 1-579): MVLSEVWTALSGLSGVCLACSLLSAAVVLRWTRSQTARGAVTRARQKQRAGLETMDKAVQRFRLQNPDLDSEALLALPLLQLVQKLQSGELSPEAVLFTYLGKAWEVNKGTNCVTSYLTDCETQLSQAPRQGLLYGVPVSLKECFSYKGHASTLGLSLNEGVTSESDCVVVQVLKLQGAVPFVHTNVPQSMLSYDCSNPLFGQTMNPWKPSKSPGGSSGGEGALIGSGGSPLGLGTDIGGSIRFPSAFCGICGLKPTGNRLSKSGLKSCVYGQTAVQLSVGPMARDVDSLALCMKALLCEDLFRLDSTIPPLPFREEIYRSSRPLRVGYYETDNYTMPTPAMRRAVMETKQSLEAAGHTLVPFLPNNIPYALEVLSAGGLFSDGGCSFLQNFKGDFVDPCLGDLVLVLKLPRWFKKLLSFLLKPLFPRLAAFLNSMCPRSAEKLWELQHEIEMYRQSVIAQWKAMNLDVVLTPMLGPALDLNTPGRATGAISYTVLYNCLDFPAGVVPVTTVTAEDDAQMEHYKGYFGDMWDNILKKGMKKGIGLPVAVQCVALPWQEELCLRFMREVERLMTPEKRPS

| Structure (SMILES) | inhibition at 1 µM [1] | inhibition at 1 µM [2] | inhibition at 1 µM [3] | inhibition at 1 µM [4] | IC50 [3] | inhibition at 10 µM ([1]; read-out: MAGL % inh. (human) at 10 uM) | inhibition at 10 µM ([3]; read-out: FAAH % inh. (human) at 10 uM) | IC50 [1] |
| --- | --- | --- | --- | --- | --- | --- | --- | --- |
| O=C(O)c1ccn(C(=O)N2CCN(Cc3cc(N4CCCC4)cc(C(F)(F)F)c3)CC2)n1 [Example 87, 1-(4-(3-(pyrrolidin-1-yl)-5-(trifluoromethyl)benzyl)piperazine-1-carbonyl)-1H-pyrazole-3-carboxylic acid] | > 75% | > 75% | 0 to 25% | 0 to 25% | – | – | – | – |
| NC(=O)c1ccc(CN2CCN(C(=O)n3ccc(C(=O)O)n3)CC2)cc1C(F)(F)F [Example 14, 1-(4-(4-Carbamoyl-3-(trifluoromethyl)benzyl)piperazine-1-carbonyl)-1H-pyrazole-3-carboxylic Acid] | 25 to 50% | 25 to 50% | 0 to 25% | 0 to 25% | – | – | – | – |
| CN(Cc1cc(Cl)ccc1C(F)(F)F)CC1CCN(C(=O)n2cc(Cl)c(C(=O)O)n2)CC1 [Example 54, 4-chloro-1-(4-(((5-chloro-2-(trifluoromethyl)benzyl)(methyl)amino)methyl)piper-idine-1-carbonyl)-1H-pyrazole-3-carboxylic acid] | > 75% | > 75% | > 75% | > 75% | 100 to 1000 nM | – | – | – |
| O=C(O)c1nn(C(=O)N2CC3CN(Cc4cccc(Oc5ccc(Cl)cc5)c4)CC3C2)cc1C(F)(F)F (centres unmarked) [Example 147, 1-(5-(3-(4-chlorophenoxy)benzyl)octahydro-pyrrolo[3,4-c]pyrrole-2-carbonyl)-4-(trifluoromethyl)-1H-pyrazole-3-carboxylic acid] | > 75% | 0 to 25% | > 75% | > 75% | – | – | – | – |
| NC(=O)c1ccn(C(=O)N2CCN(Cc3cnccc3C(F)(F)F)CC2)n1 [Example 175, 1-(4-((4-(trifluoromethyl)pyridin-3-yl)methyl)piperazine-1-carbonyl)-1H-pyrazole-3-carboxamide] | > 75% | > 75% | > 75% | > 75% | 100 to 1000 nM | – | – | – |
| O=C(O)c1ccn(C(=O)N2CCC3(CCN(Cc4cc(F)cc(Cl)c4)C3)CC2)n1 [Example 70, 1-(2-(3-chloro-5-fluorobenzyl)-2,8-diazaspiro[4.5]decane-8-carbonyl)-1H-pyrazole-3-carboxylic acid] | 25 to 50% | 0 to 25% | 50 to 75% | 0 to 25% | – | – | – | – |
| O=C(O)c1ccn(C(=O)N2CCN(Cc3ccc(Cl)cc3N3CCN(C4CC4)CC3)CC2)n1 [Example 97, 1-(4-(4-chloro-2-(4-cyclopropylpiper-azin-1-yl)benzyl)piperazine-1-carbonyl)-1H-pyrazole-3-carboxylic acid] | > 75% | > 75% | 0 to 25% | 0 to 25% | – | – | – | – |
| O=C(O)c1ccn(C(=O)N2CCN(Cc3ccc(N4CCCC4)cc3C(F)(F)F)CC2)n1 [Example 167, 1-(4-(4-(pyrrolidin-1-yl)-2-(trifluoromethyl)benzyl)piperazine-1-carbonyl)-1H-pyrazole-3-carboxylic acid] | > 75% | > 75% | 25 to 50% | 0 to 25% | 1000 to 10000 nM | – | – | – |
| Cc1cc(CN2CCC3(CCN(C(=O)n4ccc(C(=O)O)n4)CC3)C2)ccc1C(F)(F)F [Example 155, 1-(2-(3-methyl-4-(trifluoromethyl)benzyl)-2,8-diazaspiro[4.5]decane-8-carbonyl)-1H-pyrazole-3-carboxylic acid] | > 75% | > 75% | 0 to 25% | 0 to 25% | 1000 to 10000 nM | – | – | 100 to 1000 nM |
| NC(=O)c1ccn(C(=O)N2CCN(Cc3ccc(Cl)cc3)CC2)n1 [Example 181, 1-(4-(4-chlorobenzyl)pipera-zine-1-carbonyl)-1H-pyrazole-3-carboxamide] | > 75% | > 75% | > 75% | > 75% | – | – | – | – |
| O=C(O)c1ccn(C(=O)N2CCC3(CCN(Cc4cc(Cl)cc(Cl)c4)C3)CC2)n1 [Example 162, 1-(2-(3,5-dichlorobenzyl)-2,8-diazaspiro[4.5]decane-8-carbonyl)-1H-pyrazole-3-carboxylic acid] | > 75% | > 75% | > 75% | 25 to 50% | 100 to 1000 nM | – | – | – |

Second part, the compound after the results:

| inhibition at 1 µM [1] | inhibition at 1 µM [2] | inhibition at 1 µM [3] | inhibition at 1 µM [4] | IC50 [3] | inhibition at 10 µM ([1]; read-out: MAGL % inh. (human) at 10 uM) | inhibition at 10 µM ([3]; read-out: FAAH % inh. (human) at 10 uM) | IC50 [1] | Structure (SMILES) |
| --- | --- | --- | --- | --- | --- | --- | --- | --- |
| > 75% | > 75% | 0 to 25% | 50 to 75% | 1000 to 10000 nM | – | – | – | Cc1cc(-c2ccccc2)ccc1CN1CCN(C(=O)n2ccc(C(=O)O)n2)CC1 [Example 16, 1-(4-((3-Methyl-[1,1′-biphenyl]-4-yl)methyl)piperazine-1-carbonyl)-1H-pyrazole-3-carboxylic Acid] |
| – | 0 to 25% | – | 0 to 25% | – | > 75% | > 75% | – | C#Cc1ccc(CN2CCN(C(=O)n3ccc(C(=O)O)n3)CC2)cc1 [Example 50, 1-(4-(4-ethynylbenzyl)piper-azine-1-carbonyl)-1H-pyrazole-3-carboxylic acid] |
| > 75% | > 75% | 0 to 25% | 50 to 75% | 1000 to 10000 nM | – | – | – | O=C(O)c1ccn(C(=O)N2CCN(Cc3cccc(Oc4ccccc4Cl)c3)CC2)n1 [Example 85, 1-(4-(3-(2-chlorophenoxy)benzyl)piperazine-1-carbonyl)-1H-pyrazole-3-carboxylic acid] |
| > 75% | > 75% | 0 to 25% | 50 to 75% | – | – | – | – | O=C(O)c1ccn(C(=O)N2CCC3(CCN(Cc4cccc(-c5ccccc5)c4)C3)CC2)n1 [Example 73, 1-(2-([1,1′-biphenyl]-3-ylmethyl)-2,8-diazaspiro[4.5]decane-8-carbonyl)-1H-pyrazole-3-carboxylic acid] |
| > 75% | > 75% | 0 to 25% | 0 to 25% | – | – | – | – | O=C(O)c1ccn(C(=O)N2CCN(Cc3ccc(Cl)cc3-c3nnco3)CC2)n1 [Example 67, 1-(4-(4-chloro-2-(1,3,4-oxadiazol-2-yl)benzyl)piperazine-1-carbonyl)-1H-pyrazole-3-carboxylic acid] |
| > 75% | > 75% | 0 to 25% | 0 to 25% | – | – | – | – | O=C(O)c1ccn(C(=O)N2CCN(Cc3ccc(OC(F)(F)F)cc3-c3nnco3)CC2)n1 [Example 68, 1-(4-(2-(1,3,4-oxadiazol-2-yl)-4-(trifluoromethoxy)benzyl)piperazine-1-carbonyl)-1H-pyrazole-3-carboxylic acid] |
| > 75% | > 75% | 0 to 25% | 0 to 25% | – | – | – | – | O=C(O)c1ccn(C(=O)N2CCN(Cc3ccc(C(F)(F)F)cc3-c3nnco3)CC2)n1 [Example 69, 1-(4-(2-(1,3,4-oxadiazol-2-yl)-4-(trifluoromethyl)benzyl)piperazine-1-carbonyl)-1H-pyrazole-3-carboxylic acid] |
